Assay results: patent publication US20260027096A1, “PHD INHIBITORS” (Oxford University Innovation Limited, priority 2023, published 2026)
Entries after “also recorded” stand apart in the source; their conditions may differ.

How the values were obtained:
[1] = system: mouse iMLL-AF9- and Meis1Hoxa9-transformed AML cells; assay: Proliferation and apoptosis of murine iMLL-AF9 and Meis1Hoxa9 AML cells; format: cell-based; details: 50 μM
Description: (§1) Viable cells were counted by trypan blue exclusion at the indicated time points. To analyse cells undergoing apoptosis, cells were suspended in binding buffer containing PE-conjugated Annexin-V or FITC-conjugated Annexin-V, and either PI or DAPI.
(§2) To determine consequences of Daprodustat (2) and IOX5 (68, example 46) treatment on AML cells driven by the MLL-AF9→MEIS1/HOXA9 axis, mouse iMLL-AF9-and Meis1Hoxa9-transformed AML cells were employed, as well as human THP-1 cells, which harbour the MIL-AF9 translocation. […] Thus, providing compelling evidence that PHD inhibition compromises AML cells driven by the MLL-AF9→MEIS1/HOXA9 axis.

[2] = system: HIF-1α in MOLM13, OCI-AML3, MV411 and THP-1 cells; assay: Western blot of HIF-1α in human AML cell lines; format: cell-based; details: for HIF-1α protein level (immunoblot): human AML cell lines, 50 μM, 48 hrs
Method: Total protein extracts (45 μg) were subjected to SDS-PAGE (NuPAGE™ 4-12% Bis-Tris Plus Gel, ThermoFisher Scientific, NP0323BOX) and then transferred onto a polyvinylidene difluoride membranes using wet transfer. Membranes were blocked in 5% milk-TBST (TBS with 0.1% Tween20) and probed with anti-HIF1-α (Novus Biological, NB100-105, 1:1000, ON at 4° C.) and anti-β-actin (Cell Signalling Technology, #3700, 1:10 000, ON at 4° C.). After incubation with appropriate horseradish peroxidase- coupled secondary antibody (Cell Signalling Technology, Anti-mouse IgG, #7076, 1:2000, 2 h at room temperature), proteins were detected with Clarity Western ECL Substrate (BioRad, #1705061) and acquired on the Amersham Imager 600 (GE Healthcare Life Sciences).
(§3) Equipped with currently available PHD inhibitors and newly generated IOX5 (68, example 46), the impact of pharmacological PHD inhibition on AML cells was assessed. […] Thus, while PHD inhibition consistently stabilises HIF-1α protein across all tested AML cell lines, HIF-2α stabilisation is variable and cell line-specific.

human THP-1 cells = assay: Proliferation and apoptosis of THP-1 cells; format: cell-based; details: THP-1, 50 μM
Description: as §1, §2

[3] = system: MV411 AML cells in NBSGW recipient mice; assay: MV411 xenotransplantation in NBSGW mice, combination with Venetoclax; format: in vivo, mouse; details: 14 days treatment; IOX5 i.p. twice daily, Venetoclax o.g. once daily
Method: 14 days following transplantation, recipient mice were treated with IOX5 (68, example 46), Venetoclax or vehicle control. Dosing regimen consisted of 2× daily via i.p. injection (IOX5 (68, example 46) or vehicle) and/or 1× daily via o.g. (Venetoclax or vehicle). […] (E-G) Percentage of human CD45+CD33+CD14+ cells in the BM, spleen and liver, respectively (n=5). (H) Survival curve of mice treated with IOX5 (68, example 46), Venetoclax, IOX5 (68, example 46)+Venetoclax or vehicle control (n=6-7). (I-J) Proliferation and Annexin-V+DAPI+analyses, respectively, of THP-1 cells treated with Ven, IOX5, FIH inhibitor (FIHi; DM-NOFD), IOX5 (68, example 46)+FIHi, IOX5 (68, example 46)+Ven, FIHi+Ven, IOX5 (68, example 46)+FIHi+Ven or vehicle control (n=6). Statistical significance represented as in (A-B). Data represent mean±SEM; *p<0.05; ** p<0.01; *** p<0.001; **** p<0.0001.
100,000 THP-1 cells, 100,000 OCI-AM3 cells or 100,000 MV411 cells (for combination experiments) were tail vein injected into non-irradiated 10-to 12-week-old mixed gender NBSGW mice and began drug treatment 14 days after transplantation. […] Mice were culled 5 weeks after transplantation.
Mice in combination treatment experiments with Venetoclax (ABT-199) (MCE) were dosed once daily with 100 mg/kg via oral gavage (o.g.).
Further to findings in Example 170, the efficacy of IOX5 (68, example 46)+Venetoclax combination in vivo was investigated (FIG. 38D). MV411 AML cells were engrafted (with MLL-AF4 and FLT3-ITD mutation) and the recipient mice were treated with a vehicle, IOX5 (68, example 46), Venetoclax, and a combination of IOX5 (68, example 46)+Venetoclax.

[4] = Steady-state haematopoiesis analyses in C57B16 mice; format: in vivo, mouse; details: 30 mg/kg i.p. twice daily for 14 days
Method: For steady-state analyses, 8-to 10-week-old mixed gender C57B16 mice were injected intraperitoneally twice daily for 14 days with 30 mg/kg IOX5 or vehicle control. Mice were bled before and after treatment, and culled 12 hrs after the final dosing.
Given that Dap has been deemed safe in murine and human studies^37,72,78, the impact of IOX5 (68, example 46) on normal hematopoiesis was then examined.

[5] = system: BNIP3 protein in THP-1 cells
[6] = system: HIF-2α in MOLM13, OCI-AML3, MV411 and THP-1 cells; assay: Western blot of HIF-2α in human AML cell lines; format: cell-based; details: 48 hrs
Method: as §3

| Compound | apoptosis [1] | proliferation [1] | HIF-1α protein level (immunoblot) [2] | apoptosis (human THP-1 cells) | proliferation (human THP-1 cells) | leukaemic burden [3] | survival of recipient mice [3] | HSPC compartment [4] | differentiated PB, BM or spleen compartments [4] | erythropoiesis [4] | BNIP3 protein (western blot) [5] | HIF-1α protein level over time (western blot) ([2]; THP-1 cells, continuous treatment for 96 hours) | HIF-2α protein level (western blot) ([6]; MOLM13 and MV411 cells) | HIF-2α protein level (western blot) ([6]; OCI-AML3 and THP-1 cells) |
| --- | --- | --- | --- | --- | --- | --- | --- | --- | --- | --- | --- | --- | --- | --- |
| O=C(O)CNC(=O)c1c(O)n(C2CCCCC2)c(=O)n(C2CCCCC2)c1=O [Daprodustat, daprodustat, reference compound] | induced their apoptosis | compromised their proliferative capacity | strongly stabilised HIF-1a; also recorded: increased HIF-1α levels | induced their apoptosis | compromised their proliferative capacity | – | – | – | – | – | – | – | – | – |
| O=C(NCC1CCC(C(F)(F)F)CC1)c1c[nH]c(-n2cccn2)cc1=O (stereo not shown) [IOX5] | induced their apoptosis | compromised their proliferative capacity | strongly stabilised HIF-1a; also recorded: increased HIF-1α levels | induced their apoptosis | compromised their proliferative capacity | decreased leukaemic burden | extended survival of the recipient mice | no significant defects in the HSPC compartment | no detrimental impact on the differentiated PB, BM or spleen compartments | enhanced erythropoiesis | strongly upregulated BNIP3 protein | substantially stabilised after 3-12 hours, its levels decreased between 24-48 hours, then increased 72-96 hours after treatment initiation | did not induce any HIF-2α stabilisation | stabilised HIF-2α protein levels |
